Literature values in patent US20090148399A1, “Controlled release attractant for gravid female mosquitoes” (priority 2007, published 2009).

Test system: gravid female C. quinquefasciatus
Details: gravid female Culex quinquefasciatus

| SMILES | oviposition attractancy |
| --- | --- |
| CCCCCCCCCC[C@H](OC(C)=O)[C@H]1CCCC(=O)O1 [(5R,6S)-6-acetetoxy-5-hexadecanolide] | attracts other females of the same species to deposit their eggs gregariously |
| Cc1c[nH]c2ccccc12 [3-Methyl indole] | highly effective attractant |
